Here are results for nine molecules from PubChem BioAssay (NCI).

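In this assay, cells in 96-well plates receive the compound at five concentrations for 48 hours. Endpoints are linearly interpolated between the surrounding concentrations. TGI marks complete inhibition of growth.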 Where a SMILES comes first, the peptide text is derived from it. The star is where a group is joined. Cbz = O=C(OCc1ccccc1)*; Boc = CC(C)(C)OC(=O)*; Bn = c1ccc(C*)cc1

Some test systems named below: OVCAR-5 ovarian; MCF7 breast; SNB-75 CNS; SN12C renal; NCI-H23 lung; UACC-257 melanoma; MDA-MB-231 breast; BT-549 breast; HS 578T breast; A549 NSCLC; ACHN renal; KM12 colon; NCI/ADR-RES ovarian; A498 renal; HL-60(TB) leukemia; NCI-H226 lung.
What all share (experiment): NCI-60 cell line screen, 48 h

For the molecule `CCN(CC)c1ccc(C2SCC(=O)N2c2ccc(NC(=O)c3ccc(N4C(=O)CSC4c4ccc(N(CC)CC)cc4)cc3)cc2)cc1` (stereo unspecified), the TGI in the assay with OVCAR-5 ovarian, in the assay on MCF7 breast, in the assay on SNB-75 CNS, in the assay with SN12C renal, in the assay on NCI-H23 lung and in the assay with UACC-257 melanoma was over 100 µM in each case. Besides, the TGI with MDA-MB-231 breast, with BT-549 breast, in the assay with HS 578T breast, in the assay on A549 NSCLC, with ACHN renal and with KM12 colon was over 100 µM each time. In the assay on NCI/ADR-RES ovarian, this molecule displayed a TGI of over 100 µM.

For `CCCCn1cnnc1NS(=O)(=O)c1cc(C)c(Cl)cc1SCC(=O)O`, the TGI with A498 renal, in the assay on OVCAR-5 ovarian, with SNB-75 CNS, in the assay on SN12C renal, with NCI-H23 lung and with UACC-257 melanoma was over 10 µM each time. Besides, the TGI with HL-60(TB) leukemia, with MDA-MB-231 breast, in the assay with NCI-H226 lung, in the assay with BT-549 breast, in the assay on HS 578T breast and in the assay with A549 NSCLC was over 10 µM throughout. The TGI in the assay on ACHN renal, with KM12 colon and in the assay on NCI/ADR-RES ovarian was over 10 µM each time.

In the case of `CC(C)(C)OC(=O)NC(Cc1ccc(OCc2ccccc2)cc1)C(=O)NC(CCCCNC(=O)OCc1ccccc1)C(=O)O` (stereo unspecified) (Boc-Tyr(Bn)-Lys(Cbz)-OH; configuration not given here), the TGI with OVCAR-5 ovarian, in the assay with MCF7 breast, with SNB-75 CNS, in the assay on SN12C renal, with NCI-H23 lung and with UACC-257 melanoma was over 100 µM in each case. Besides, the TGI is 86.9 µM with HL-60(TB) leukemia; over 100 µM in the assay on MDA-MB-231 breast; over 100 µM in the assay with NCI-H226 lung; 60.8 µM in the assay with BT-549 breast; over 100 µM with HS 578T breast; over 100 µM in the assay with A549 NSCLC. Moreover, in the assay with KM12 colon, the TGI is over 100 µM.

For the molecule `Cc1nc2ccc(F)cc2c2c1CCO2`, the TGI in the assay with A498 renal, in the assay with OVCAR-5 ovarian, in the assay on SNB-75 CNS, in the assay with SN12C renal, in the assay on NCI-H23 lung and in the assay with UACC-257 melanoma was over 100 µM in each case. In addition, the TGI in the assay with HL-60(TB) leukemia was 55.2 µM; in the assay on MDA-MB-231 breast, 93.6 µM; with NCI-H226 lung, over 100 µM; in the assay on BT-549 breast it was over 100 µM; with HS 578T breast it was over 100 µM; in the assay with A549 NSCLC, over 100 µM. Moreover, the TGI in the assay with ACHN renal, in the assay on KM12 colon and in the assay with NCI/ADR-RES ovarian was over 100 µM each time.

`C/C(=N\NC(=S)NC1CCCC1)c1ccccn1`: the TGI in the assay on A498 renal was over 28 µM; with OVCAR-5 ovarian it was over 100 µM; with MCF7 breast, 28.7 µM; in the assay on SNB-75 CNS, over 100 µM; in the assay with SN12C renal, over 100 µM; in the assay on NCI-H23 lung it was over 100 µM. The TGI is over 57.2 µM with MDA-MB-231 breast; 15 µM with NCI-H226 lung; 63.9 µM with BT-549 breast; over 100 µM with HS 578T breast; over 53.6 µM in the assay on A549 NSCLC; 20.1 µM with ACHN renal. In addition, the TGI with KM12 colon was over 83.2 µM.

Take `CCN(CCCN(CC)C(=O)Nc1ccccc1)C(=O)Nc1ccccc1`: the TGI in the assay with OVCAR-5 ovarian, in the assay with MCF7 breast, in the assay with SNB-75 CNS, in the assay on SN12C renal, with NCI-H23 lung and with UACC-257 melanoma was over 100 µM each time. In addition, the TGI in the assay with HL-60(TB) leukemia, in the assay on MDA-MB-231 breast, with NCI-H226 lung, with BT-549 breast, in the assay on A549 NSCLC and with ACHN renal was over 100 µM each time. Also, the TGI in the assay with KM12 colon and in the assay on NCI/ADR-RES ovarian was over 100 µM throughout.

As to `O=C(O)CSCC(=O)O`, the TGI in the assay on A498 renal, in the assay with OVCAR-5 ovarian, in the assay with SNB-75 CNS, with SN12C renal, in the assay with NCI-H23 lung and in the assay on UACC-257 melanoma was over 100 µM each time. Besides, the TGI in the assay with HL-60(TB) leukemia, with MDA-MB-231 breast, with NCI-H226 lung, with BT-549 breast, in the assay with HS 578T breast and in the assay with A549 NSCLC was over 100 µM each time. The TGI in the assay on ACHN renal, in the assay with KM12 colon and with NCI/ADR-RES ovarian was over 100 µM in each case.

In the case of `CCOP1(=O)C=C(Sc2ccc([N+](=O)[O-])cc2[N+](=O)[O-])C(C)(C)O1` (stereo unspecified), the TGI stood at 44.5 µM in the assay with A498 renal; 43.4 µM with OVCAR-5 ovarian; 17.2 µM with MCF7 breast; 50.3 µM in the assay with SNB-75 CNS; 41 µM in the assay with SN12C renal; 46.3 µM in the assay on NCI-H23 lung. The TGI in the assay on UACC-257 melanoma is 25 µM; in the assay on HL-60(TB) leukemia, 77.3 µM; in the assay with NCI-H226 lung, 47.2 µM; in the assay on BT-549 breast, 32.2 µM; in the assay on HS 578T breast it was over 78.8 µM; in the assay on A549 NSCLC it was 44.3 µM. The results for the TGI in the assay on ACHN renal, in the assay on KM12 colon and in the assay with NCI/ADR-RES ovarian were 28 µM, 38.6 µM and over 76.5 µM, respectively.

Regarding `COc1ccc(-c2cc(-c3ccc(Nc4ccnc5cc(Cl)ccc45)cc3)nc(N)c2C#N)cc1`, the TGI in the assay with A498 renal, in the assay on OVCAR-5 ovarian, in the assay on MCF7 breast, with SNB-75 CNS, in the assay with NCI-H23 lung and in the assay on HL-60(TB) leukemia was over 100 µM each time. Further, the TGI in the assay with MDA-MB-231 breast, with NCI-H226 lung, in the assay with BT-549 breast, in the assay on A549 NSCLC, in the assay on ACHN renal and in the assay on KM12 colon was over 100 µM throughout. Moreover, in the assay with NCI/ADR-RES ovarian, the TGI is over 100 µM.
